The values that follow come from PMC12040169 (PLOS Biology, 2025).

This data set can be described thus: in vitro. To be noted: human, hela cells, % viability.
For the compound `CCc1cccc(NC(=O)NCCC2=CCCCC2)c1` [CBK045009], the viability at 28.5 h, 10 µM was found to be 108%.
As for `NC(=O)CCC(=O)N1CCC2(C/C=C/CCOc3ccccc3C(=O)NCCCNC2=O)CC1` [CBK292059], the figure is 91.7%; as for `CC(C)NC(=O)C1(Cc2ccc(-c3ccccc3)cc2)CCN(C(=O)C2CCC2)CC1` [CBK285750], 102%; as for `CC(=O)Nc1ccc(-c2ccc(C(=O)N3CCN(C(=O)c4ccco4)CC3)cn2)cc1` [CBK160186], 85.8%.
As for `COc1ccc(-c2cc(C3CCCCCN3)no2)cc1` (centres unmarked) [CBK285399], the figure is 96.5%; as for `O=C1NCCCC12CCN(Cc1ccc3ncccc3c1)CC2` [CBK284825], 91.4%; as for `CCN1CCCC1CNC(=O)c1cc(Br)cnc1N(C)C(C)=O` (centres unmarked) [CBK076524], 85.2%.
As for `CS(=O)(=O)N(CC(=O)NCc1ccccn1)Cc1ccc(Cl)cc1` [CBK267982], the figure is 94.6%; as for `Cn1c(SCC(=O)c2ccccc2)nnc1-c1ccc(NC(=O)c2ccccc2Cl)cc1` [CBK264357], 95%; as for `c1ccc(CCNc2c3c(nc4ccccc24)CCC3)cc1` [CBK263693C], 92.2%.
`c1csc(CN2CCC[C@H]2c2nc(-c3ccc(-n4ccnc4)nc3)no2)c1` [CBK288895]: the viability at 28.5 h, 10 µM came to 111%.
For `COCCN1C(=O)C2(CC(=O)N(CCOc3ccccc3)C2=O)c2ccccc21` (centres unmarked) [CBK075322], the viability at 28.5 h, 10 µM amounted to 98.5%.
`Cc1cc(C)n(CC2(CNC(=O)C(c3ccccc3F)N(C)C)CC2)n1` (centres unmarked) [CBK306920]: the viability at 28.5 h, 10 µM is 97.2%.
In the case of `COc1ccc(CNc2nc(C)n[nH]2)cc1Cl` [CBK288036], the viability at 28.5 h, 10 µM came out at 98.9%.
For `CN1CCN(C(=O)c2cccc(-c3nc(-c4ccc(C#N)cc4)cnc3N)c2)CC1` [CBK064144], the viability at 28.5 h, 10 µM came out at 100%.
In the case of `CNS(=O)(=O)c1cccc(C(C)NC(=O)N2CCSCC2)c1` (centres unmarked) [CBK305825] it was 95.1%.
In the case of `O=C(NCCO)c1cccc(-c2cnc3[nH]c(=O)n(Cc4ccccn4)c3n2)c1` [CBK065034] it was 96.5%; in that of `CCn1nc(C)c(NC(=O)c2ncoc2-c2ccc(F)cc2)c1C` [CBK282360], 88%; in that of `CCCCOc1nccnc1-c1ccc(C)c(C)c1` [CBK106870], 95.1%.
In the case of `O=S(=O)(Nc1ccc(N2CCNCC2)c2ccccc12)c1cc(Cl)sc1Cl` [CBK003116C] it was 93.9%; in that of `COC(=O)c1sccc1-c1ccc(C2C3=C(CCCC3=O)NC3=C2C(=O)CCC3)o1` [CBK005748], 92.3%; in that of `COc1cc(-c2noc(-c3cc(-c4ccccc4)n[nH]3)n2)cc(OC)c1OC` [CBK287774], 92.3%.
In the case of `O=C(Nc1ncccc1O)c1c(O)c2ccccc2n(Cc2ccccc2)c1=O` [CBK291211], the viability at 28.5 h, 10 µM amounted to 103%.
As for `CCn1cc(C(=O)NN)c(=O)c2cc(F)c(N3CCCC3)cc21` [CBK307146], the figure is 82.9%; as for `CC(=O)c1sc2nc(-c3ccccc3)nc(C)c2c1N` [CBK115368], 90.5%.
In the case of `COc1ccc(C(=O)Nc2c(C)nn(-c3ccccc3)c2C)cc1S(=O)(=O)NC1CC1` [CBK297906] it was 85.7%; in that of `COC1CCC(C(=O)Nc2cnc(-c3cccc(OC(F)(F)F)c3)c(-c3cccnc3)n2)CC1` (centres unmarked) [CBK036754], 97.4%.
`Cc1ncccc1-c1cc2cccnc2n1CCC(=O)NC1CC1` [CBK282690]: the viability at 28.5 h, 10 µM stood at 106%.
As for `C[C@@H]1CN(C(=O)OCCc2cccs2)C[C@H](C)O1` [CBK200416], the figure is 95.5%; as for `O=C(NCCc1nc2ccccc2[nH]1)c1cccc(Cl)c1` [CBK263514], 100%; as for `O=S(=O)(Nc1nc(CCNCCO)cs1)c1ccc(Oc2ccccc2)cc1` [CBK034632], 111%.
Take `Cc1cc(C)c(C)c(S(=O)(=O)Nc2ccc(C(=O)NCc3ccccn3)cc2)c1C` [CBK267275]: the viability at 28.5 h, 10 µM was found to be 85.8%.
In the case of `Cc1noc(C)c1NC(=O)c1ccc2ncccc2c1` [CBK200308] it was 104%; in that of `Cc1nonc1NC(=O)CN1CCCC1` [CBK261840], 109%.
As for `Cn1cc(CC(=O)N2CCN(c3ccccc3)CC2)c2ccccc21` [CBK200168], the figure is 95.8%; as for `Cc1noc(C)c1CC(=O)N1CCC2(C/C=C/C[C@H]3COCC[C@@H]3NC(=O)CNC2=O)CC1` [CBK292071], 92.3%; as for `CN(Cc1nc(-c2ccccc2)no1)C(=O)C1CC2(CCNCC2)CN1` (centres unmarked) [CBK306585], 88.7%.
For the compound `O=C(NCc1ccccc1F)c1cccc(CN2C(=O)CSC2=O)c1` [CBK296730], the viability at 28.5 h, 10 µM was 100%.
Consider `Cc1sc2ncnc(N3CCCC3Cn3cccn3)c2c1C` (centres unmarked) [CBK304570], for which the viability at 28.5 h, 10 µM turned out to be 90.9%.
In the case of `COc1ccc(CC(=O)N2CCCc3c(cnn3C)C2)cc1F` [CBK285285] it was 87.9%; in that of `Cc1n[nH]c(C)c1CCC(=O)N/N=C/c1ccc(Cl)cc1Cl` [CBK262901], 86.6%.
As for `Cc1nc2c(c(=O)[nH]1)CN(Cc1ccc(Cl)c(Cl)c1)CC2` [CBK283949], the figure is 88.7%; as for `O=C(c1c[nH]c2ccccc12)C(F)(F)C(F)(F)F` [CBK007222], 101%; as for `CC(=O)c1ccc(-c2nc(NS(C)(=O)=O)cc3cccnc23)cc1` [CBK061874], 96.3%.
In the case of `CN(CC(=O)Nc1sc2c(c1C#N)CCCCC2)Cc1cnn(C)c1` [CBK304621] it was 94.3%; in that of `O=C1CN(c2nc(-c3ccncc3)nc3ccccc23)CCN1` [CBK305805], 91.9%; in that of `COc1c(C)cnc(COC(=O)N2CCOCC2)c1C` [CBK200145], 105%.
For the compound `CS(=O)(=O)N/N=C/c1ccc(Cl)cc1Cl` [CBK026420], the viability at 28.5 h, 10 µM was found to be 105%.
On to `O=C(c1ccc(Cl)cc1)c1ccc(OCC(=O)N2CCN(C(=O)c3ccco3)CC2)cc1` [CBK295658], for which the viability at 28.5 h, 10 µM worked out at 89.2%.
As to `CC(C)c1ccc(S(=O)(=O)NCc2c(F)ccc(Cl)c2F)cc1` [CBK043484], the viability at 28.5 h, 10 µM worked out at 88.4%.
In the case of `Cn1cc(-c2nc(C3COCCN3Cc3ccc(F)cc3)no2)cn1` (centres unmarked) [CBK305391] it was 97.7%; in that of `N/C(=N\c1nonc1N)NC(=O)c1ccccc1` [CBK006756], 71.5%.
In the case of `Cc1onc(-c2ccccc2)c1C(=O)n1cccn1` [CBK287274] it was 97.5%.
As to `Cc1ccc(S(=O)(=O)N2CCC(C(=O)O)CC2)cc1C(=O)O` [CBK266636], the viability at 28.5 h, 10 µM worked out at 99.6%.
For the compound `COc1ccc([C@@]23CC[C@@H](NC(=O)Nc4cccc(Br)n4)C[C@@H]2N(C)CC3)cc1OC` [CBK045703], the viability at 28.5 h, 10 µM was 85.4%.
In the case of `Cc1ccc(C(=O)Nc2cccc(-c3ccc4nnc(C)n4n3)c2)cc1` [CBK287683] it was 82.8%.
Take `Cc1ccc(C)c(C(=O)C2=C(O)C(=O)N(CCN(C)C)C2c2cccc(Cl)c2)c1` (centres unmarked) [CBK265495]: the viability at 28.5 h, 10 µM turned out to be 91.4%.
As for `COC(=O)c1c(NC(=O)CCCC(=O)O)sc(C)c1C` [CBK265382], the figure is 98.2%.
Take `NC1CC(c2cc(NCCCc3nnc4ccccn34)ncn2)C1` (centres unmarked) [CBK307120]: the viability at 28.5 h, 10 µM turned out to be 104%.
As for `Cn1cc(C(=O)NCc2ccccc2)c2ccccc21` [CBK200196], the figure is 72.9%; as for `CS(=O)(=O)Nc1ccc2cc(-c3cccc(C(F)(F)F)c3)cnc2n1` [CBK085671], 94.1%.
Consider `O=C(NCCn1nc(-c2cccs2)ccc1=O)C1CCCC1` [CBK283840], for which the viability at 28.5 h, 10 µM came to 104%.
On to `CS(=O)(=O)c1cccc(-c2cnc(NCC3CC3)c(C(=O)Nc3ccc4c(c3)OCO4)c2)c1` [CBK076362], for which the viability at 28.5 h, 10 µM was determined as 95.2%.
As for `O=C(NCC(CO)Cc1ccsc1)N1CCN(c2ccncc2)CC1` (centres unmarked) [CBK306929], the figure is 96.7%; as for `Cc1ccc2[nH]c(SCc3nc(-c4cccs4)no3)nc2c1` [CBK269509], 108%; as for `O=C1c2ccccc2NC(c2cccc(O)c2)N1O` (centres unmarked) [CBK288426], 98.2%.
As for `CC(C)(C)OC(=O)N1CCCC(c2nc3ccccc3cc2N)C1` (centres unmarked) [CBK284711], the figure is 96.7%; as for `CC(=O)c1cn(CCC(=O)NC2CCCN(C)C2)c2ccccc12` (centres unmarked) [CBK282503], 81.3%; as for `COc1ccc(-c2nc3cc(NC(=O)COc4ccccc4[N+](=O)[O-])ccc3o2)cc1Cl` [CBK263412], 99.2%.
In the case of `O=C(O)c1ccc(CN2CCC[C@H]2c2nc(-c3ccc(F)cn3)no2)cc1` [CBK288896] it was 96.9%; in that of `CCCc1ccc(N(C)C(=O)c2ccc(OC(F)(F)F)cc2)cc1` [CBK161616], 91.4%; in that of `Cc1noc(C)c1NC(=O)N(Cc1ccccc1C(F)(F)F)C1CCC(N)CC1` (centres unmarked) [CBK045963C], 103%.
Turning to `COc1ccc(Cc2nc3ccccc3n2CCc2ccccc2)cc1` [CBK266385], the viability at 28.5 h, 10 µM was 95.2%.
On to `O=S(=O)(Nc1nccnc1-c1ccc2c(c1)OCO2)c1ccc(Cl)cc1` [CBK050952], for which the viability at 28.5 h, 10 µM was found to be 92.4%.
As for `COC(=O)C1CCCCN1S(=O)(=O)c1cccs1` (centres unmarked) [CBK051135], the figure is 109%; as for `O=C(Cc1c[nH]c2ccccc12)N1CCC2(CCCN(C(=O)c3cscn3)C2)C1` (centres unmarked) [CBK131590], 99.1%; as for `CC(Sc1nc2ccc(F)cc2c(=O)[nH]1)C(=O)N1CCOCC1` (centres unmarked) [CBK305958], 108%.
As for `O=C(CN(Cc1ccccc1)S(=O)(=O)c1cc(Cl)ccc1Cl)Nc1cccc(F)c1` [CBK264664], the figure is 89.3%.
Regarding `Cc1ccc(S(=O)(=O)N2c3ccc(C(=O)O)cc3CC2C)cc1` (centres unmarked) [CBK286584], the viability at 28.5 h, 10 µM was 82.6%.
As for `Cc1cc2nc(NC(=N)N)nc(C)c2cc1C` [CBK262269], the figure is 83.8%.
